Source: patent US20080267861A1, “Myocardial Perfusion Imaging” (CV THERAPEUTICS, INC., priority 2007, published 2008)

Columns and labels:
[1] = test system: patients requiring pharmacologic MPI; assay: Adverse events during MPI protocols; assay type: in vivo, human; details: for frequency of dyspnea: 39 crossover patients
Procedure: (§1) In this multicenter study, subjects requiring pharmacologic MPI based on clinical criteria received adenosine infusion (Astellas Pharma, Inc.), 140 mcg/kg/min over 6 min in the supine position (AdenoSup), following enrollment and were then randomized (2:1) in a double-blind manner to a novel protocol (RegEx) consisting of 4 min of sub-maximal exercise (1.7 mph at 0% grade) with bolus intravenous injection of 400 mcg Regadenoson at 1.5 min and ^99mTechnetium-Sestamibi at 2 min or matching placebos (PlcEx).
(§2) The primary objective was to assess the overall safety of Regadenoson in patients undergoing low-level stress by comparing hemodynamic, cardiac rhythm and adverse effects of the 3 protocols. In addition, patient acceptance was determined by comparing patient comfort and test protocol preference using questionnaires. Three blinded expert readers independently interpreted randomly presented perfusion scans at a nuclear core lab (Services NucMed, Montreal, Canada). Image quality was compared between AdenoSup and RegEx by computation of heart-to-liver and heart-to-gut ratios and the readers' visual assessment of overall image quality and image quality with respect to subdiaphragmatic interference specifically. A 17-segment MPI model was used by the core lab readers, to compare the extent of the perfusion defect between RegEx and AdenoSup quantitatively and also qualitatively with side-by-side visual comparison. Patients were required to abstain from methylxanthine-containing foods and beverages for 12 hours prior to receiving study drug and adenosine. The protocol was approved by an institutional review board and all patients provided written informed consent.
(§3) Changes in blood pressure, heart rate, and ECG intervals were computed over time and compared (Regadenoson vs. placebo) using repeated measures, mixed-model ANOVA. The incidence of symptomatic hypotension, systolic blood pressure decreases of >20 mm Hg, ECG abnormalities, and severe or related adverse events was compared using Fisher's exact test. The quality of nuclear MPI scans following regadenoson and low-level exercise was compared to adenosine-supine MPI scans of the same subject using the sign test. Radiotracer target-to-background ratios were computed and compared between the two imaging regimens using the Wilcoxon signed ranks test. Semi-quantitative scoring of perfusion defects (Summed Stress Score (SSS), Summed Difference Score (SDS), etc.) was conducted using a 17-segment polar map and the quality of agreement between the two imaging regimens was assessed using […]

[2] = test system: patients requiring pharmacologic MPI; assay: SPECT myocardial perfusion imaging: heart-to-background ratios, image quality, perfusion defects; assay type: in vivo, human; details: for heart-to-gut ratio, mean (SD) / heart-to-liver ratio, mean (SD) / heart-to-liver+gut ratio, mean (SD): 39 patients undergoing both scans, 99mTc-Sestamibi
Procedure: as §1
Prior to randomization, patients were stratified based on the presence of reversible perfusion defects, defined as a two or more segments with a stress score >rest score and a stress score >2 on a 5-category scale, as interpreted by a board-certified nuclear cardiologist at each site. The 5-category scale, used both for stratifying patients and for evaluation of perfusion defects on study, was as follows: 0=normal; 1=mild reduction in tracer uptake, not definitely abnormal; 2=moderate reduction in uptake, definitely abnormal; 3=severe reduction in uptake; 4=absent uptake.
as §2
Nuclear imaging was performed using either a dual isotope protocol or a two-day ^99mTechnetium-Sestainibi protocol at the investigators' discretion. However, men with body weight >220 pounds and body mass index >30 kg/m2 and women with body weight >200 pounds and body mass index >30 kg/m2 were to undergo the two day protocol. The single photon emission computed tomography (SPECT) imaging was standardized for image acquisition and transmittal in accordance with the American Society of Nuclear Cardiology guidelines. The protocol required an extra ˜8 mSv radiation to the patients in the study arm, and none to the patients in the control (placebo exercise) arm.
The dual isotope protocol was performed over 2 separate days. On the first day, patients were to have a rest scan with ^201Thallium followed by a ^99mTechnetium-Sestamibi adenosine-supine MPI; on a subsequent day, patients underwent a ^99mTechnetium-Sestamibi study drug (i.e., regadenoson or placebo) sub-maximal treadmill exercise MPI.
The multi-day ^99mTechnetium-Sestamibi was performed over 3 days. On the first day, patients were to have a ^99mTechnetium-Sestamibi adenosine supine MPI or ^99mTechnetium-Sestamibi rest scan. […] The second and third days were not necessarily consecutive to the first day.
The stress MPI scans were to be performed 60±10 minutes after the start of adenosine or study drug.
Changes in blood pressure, heart rate, and ECG intervals were computed over time and compared (Regadenoson vs. placebo) using repeated measures, mixed-model ANOVA. The incidence of symptomatic hypotension, systolic blood pressure decreases of >20 mm Hg, ECG abnormalities, and severe or related adverse events was compared using Fisher's exact test. […]

[3] = test system: patients requiring pharmacologic MPI; assay: Hemodynamic, cardiac rhythm and ECG effects of MPI protocols; assay type: in vivo, human; details: for effects on ECG intervals: AdenoSup, RegEx and PlcEx compared; for patients with arrhythmias following both AdenoSup and RegEx / patients with arrhythmias following this protocol only: adverse events or ECG findings; for occurrences of 2nd degree or higher AV block: in vivo
Procedure: as §1, §2, §3

[4] = test system: patients requiring pharmacologic MPI; assay: Patient comfort and test protocol preference questionnaires; assay type: in vivo, human; details: for tolerability: 400 mcg bolus during low-level exercise
Procedure: as §2
Cohen's kappa for the categories 0-3, 4-7, 8-11, and >12 (SSS) and 0-6, 7-13, and >14 (SDS). The number of segments with reversible perfusion defects was defined as the median number across the three readers. Subject comfort and tolerability were assessed using a 4-point scale and the regimens compared using a Cochran-Mantel-Haenszel test of equality of mean scores. Data are expressed as mean (SD) unless otherwise specified. Statistical analyses were conducted using SAS version 9.1. Statistical significance was defined as a p-value of <0.05.

[5] = relative to adenosine; cited from earlier work
[6] = AdenoSup, later randomized to RegEx (n = 39)

With `Nc1ncnc2c1ncn2[C@@H]1O[C@H](CO)[C@@H](O)[C@H]1O` [Adenosine, adenosine, reference compound] the frequency of dyspnea [1] was 41%, the “patients with at least one adverse event” value ([1]; 62 patients dosed) was 95% and the “Adverse event: Stomach Discomfort, patients” value ([1]; AdenoSup, later randomized to PlcEx (n = 21)) was 0. The “Adverse event: Dizziness, patients” value [1, 6] was 0, the “Adverse event: Pain in Jaw, patients” value [1, 6] was 0 and the “patients with severe adverse events” value ([1]; AdenoSup: of 60 patients) was 4. The “patients with protocol-defined symptomatic hypotension” value ([1]; in vivo) was “One”, the “patients with severe adverse events” value ([1]; of 60 patients) was 6.7% and the “heart-to-gut ratio, mean (SD)” value [2] was 0.97 (0.34). The “heart-to-liver ratio, mean (SD)” value [2] was 0.65 (0.26), the “heart-to-liver+gut ratio, mean (SD)” value [2] was 0.72 (0.18) and the “patients in whom reversible perfusion defects were detected” value ([2]; of 39 patients) was 51.3%. For the same molecule, the “patients in whom reversible perfusion defects were detected” value ([2]; out of 39 patients) was 20, the “effects on ECG intervals” value [3] was “similar” and the “patients with arrhythmias following both AdenoSup and RegEx” value [3] was 2. The “patients with arrhythmias following this protocol only” value [3] was 3, the “occurrences of 2nd degree or higher AV block” value [3] was “one” and the “peak heart rate, increase from resting baseline” value ([3]; mean (SE)) was “+21.0 (SE 2.5) bpm”.

For `CNC(=O)c1cnn(-c2nc(N)c3ncn([C@@H]4O[C@H](CO)[C@@H](O)[C@H]4O)c3n2)c1` [Regadenoson, (1-{9-[(4S,2R,3R,5R)-3,4-dihydroxy-5-(hydroxymethyl)oxolan-2-yl]-6-aminopurin-2-yl}pyrazol-4-yl)-N-methylcarboxamide], the “patients reporting being very uncomfortable or extremely uncomfortable” value ([4]; 4-point scale) was “No patients”, the “patients reporting the test as "a little uncomfortable"” value ([4]; 4-point scale) was 41% and the “patients reporting the test as "comfortable"” value ([4]; 4-point scale) was 59%. The tolerability [4] was “feasible and well tolerated”, the tolerability ([4]; listed as RegEx) was “well tolerated” and the frequency of dyspnea [1] was 54%. For the same molecule, the “patients with severe adverse events” value ([1]; AdenoSup: of 60 patients) was “no patient”, the “Adverse event: Chest Pain, patients” value ([1]; RegEx (n = 39)) was 0 and the “Adverse event: Pain in Jaw, patients” value ([1]; RegEx (n = 39)) was 0. The “Adverse event: Throat tightness, patients” value ([1]; RegEx (n = 39)) was 0, the “patients with at least one adverse event” value ([1]; n=39) was 77% and the “heart-to-gut ratio, mean (SD)” value [2] was 1.1 (0.36). For the same molecule, the “heart-to-liver ratio, mean (SD)” value [2] was 0.85 (0.34), the “heart-to-liver+gut ratio, mean (SD)” value [2] was 0.93 (0.26) and the “image quality with respect to subdiaphragmatic interference, side-by-side RegEx vs AdenoSup” value ([2]; 39 patients, blinded readers) was “significantly better”. The “overall image quality, side-by-side comparison RegEx vs AdenoSup” value ([2]; 39 patients, blinded readers, listed as RegEx) was “significantly better overall image quality”, the “patients in whom reversible perfusion defects were detected” value ([2]; of 39 patients) was 64.1% and the “patients in whom reversible perfusion defects were detected” value ([2]; out of 39 patients) was 25. The “heart rate over the pre-exercise baseline” value ([3]; 24 minutes following start of exercise, mean (SE)) was “+4.6 (SE 1.5) bpm”, the “effects on ECG intervals” value [3] was “similar” and the “peak heart rate greater than following AdenoSup” value ([3]; RegEx vs AdenoSup) was 21 bpm. The “peak heart rate greater than following PlcEx” value ([3]; RegEx vs PlcEx) was 13 bpm, the “systolic blood pressure analyses (change in mean SBP, nadir SBP, decline >20 mm Hg)” value ([3]; RegEx vs PlcEx and vs AdenoSup) was “no important differences” and the “patients with arrhythmias following both AdenoSup and RegEx” value [3] was 2. For the same molecule, the “patients with arrhythmias following this protocol only” value [3] was 1, the “heart rate higher than the pre-exercise baseline” value ([3]; by 24 minutes following the study drug bolus) was under 5 bpm and the “occurrences of 2nd degree or higher AV block” value [3] was “No occurrences”. For the same molecule, the “peak heart rate, increase from resting baseline” value ([3]; mean (SE)) was 41.9 (SE 2.7) bpm, the “increase of mean maximum heart rate over sub-maximal exercise with placebo” value ([3]; with sub-maximal exercise) was 16.5 beats per minute and the “mean maximum heart rate increase” value ([3]; with sub-maximal exercise (Discussion)) was “+40.2 (1.5) bpm”.

For `OCCN(CCO)c1nc(N2CCCCC2)c2nc(N(CCO)CCO)nc(N3CCCCC3)c2n1` [dipyridamole], the half-life [5] is given as “longer than that of adenosine”.
